Earlier results as cited in US20130078290A1, “Gastroretentive Dosage Forms Of GABA Analogs” (Rubicon Research Private Limited, priority 2010, published 2013).

Tests used:
[1] = for Elimination half-life: in vivo
[2] = in water and in acidic and basic aqueous solutions

SMILES	Oral bioavailability ([1]; dose in range of 300-400 mg)	Elimination half-life [1]	Solubility [2]
NCC1(CC(=O)O)CCCCC1 [gabapentin, 1-(Aminomethyl)cyclohexaneacetic acid]	approximately 60%	5 to 7 h	freely soluble
CC(C)CC(CN)CC(=O)O (centres unmarked) [pregabalin, 5-methyl-3-aminomethyl-hexanoic acid]	–	about 6.3 hours	freely soluble
